Source: ChEMBL document CHEMBL5120960, “Unveiling the Structure-Activity Relationships at the Orthosteric Binding Site of P2X Ion Channels: The Route to Selectivity” (J Med Chem, 2022)
pEC50, pIC50: −log10 of the molar value.

What was measured:
Assay type in all cases: cell-based
[1] = molecular target: T1, P2X purinoceptor 7 (Homo sapiens, UniProt Q99572); experiment: […] activity at human P2X7R expressing HEK293 cells assessed as reduction in intracellular Ca2+ influx pretreated with Fluo-4 for 1 hr followed by compound addition and further incubated for 30 mins in presence of ATP by multimode plate reader analysis
T1 sequence (Q99572 whole entry): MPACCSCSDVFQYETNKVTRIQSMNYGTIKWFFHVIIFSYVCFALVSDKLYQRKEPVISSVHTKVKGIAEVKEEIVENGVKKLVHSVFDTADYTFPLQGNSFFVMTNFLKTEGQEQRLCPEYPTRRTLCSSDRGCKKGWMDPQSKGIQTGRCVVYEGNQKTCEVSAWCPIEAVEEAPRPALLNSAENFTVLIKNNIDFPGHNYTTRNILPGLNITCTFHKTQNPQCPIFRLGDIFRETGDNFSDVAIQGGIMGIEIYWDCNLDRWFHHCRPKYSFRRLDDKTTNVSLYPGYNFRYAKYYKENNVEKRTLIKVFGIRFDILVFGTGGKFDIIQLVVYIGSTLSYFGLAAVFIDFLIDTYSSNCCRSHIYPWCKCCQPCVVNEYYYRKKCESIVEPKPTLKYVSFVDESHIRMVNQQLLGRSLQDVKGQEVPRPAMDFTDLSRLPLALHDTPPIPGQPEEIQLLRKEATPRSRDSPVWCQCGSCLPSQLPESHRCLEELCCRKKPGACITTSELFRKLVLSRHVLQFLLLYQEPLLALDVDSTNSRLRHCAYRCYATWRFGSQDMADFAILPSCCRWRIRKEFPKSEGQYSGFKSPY

[2] = molecular target: T2, P2X2/P2X3 heterotrimeric receptor (Homo sapiens, UniProt P56373+Q9UBL9); experiment: Antagonist activity at human P2X2R/P2X3R expressing CHO cells assessed as reduction in intracellular Ca2+ influx pretreated with Fluo-4 for 1 hr followed by compound addition and further incubated for 30 mins in presence of ATP by multimode plate reader analysis
T2 sequence (Q9UBL9 whole entry): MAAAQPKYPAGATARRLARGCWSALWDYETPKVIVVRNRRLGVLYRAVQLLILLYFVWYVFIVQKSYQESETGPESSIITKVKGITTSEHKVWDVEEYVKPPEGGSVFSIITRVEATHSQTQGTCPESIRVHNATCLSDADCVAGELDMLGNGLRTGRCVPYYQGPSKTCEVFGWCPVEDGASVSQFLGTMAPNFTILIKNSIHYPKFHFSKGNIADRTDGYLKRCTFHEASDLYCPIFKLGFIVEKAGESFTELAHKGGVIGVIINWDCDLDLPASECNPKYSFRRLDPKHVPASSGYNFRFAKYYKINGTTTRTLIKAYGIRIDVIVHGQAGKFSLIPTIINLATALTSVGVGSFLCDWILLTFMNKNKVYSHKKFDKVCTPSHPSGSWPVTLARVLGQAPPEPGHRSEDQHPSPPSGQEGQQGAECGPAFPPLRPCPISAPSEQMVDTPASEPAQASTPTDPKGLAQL
T2 sequence (P56373 whole entry): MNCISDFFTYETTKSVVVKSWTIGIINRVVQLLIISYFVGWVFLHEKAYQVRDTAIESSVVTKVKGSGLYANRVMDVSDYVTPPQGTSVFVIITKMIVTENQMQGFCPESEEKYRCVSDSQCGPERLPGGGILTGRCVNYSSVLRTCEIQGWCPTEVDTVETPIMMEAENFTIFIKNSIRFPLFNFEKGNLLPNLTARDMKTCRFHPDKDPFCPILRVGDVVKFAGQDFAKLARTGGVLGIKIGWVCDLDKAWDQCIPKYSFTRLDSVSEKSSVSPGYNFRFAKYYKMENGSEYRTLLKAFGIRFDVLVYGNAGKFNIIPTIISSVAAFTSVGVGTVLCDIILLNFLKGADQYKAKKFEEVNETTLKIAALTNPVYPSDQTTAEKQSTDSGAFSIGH

[3] = molecular target: T3, P2X purinoceptor 4 (Homo sapiens, UniProt Q99571); experiment: Antagonist activity at human P2X4R expressing HEK293 cells assessed as reduction in intracellular Ca2+ influx pretreated with Fluo-4 for 1 hr followed by compound addition and further incubated for 30 mins in presence of ATP by multimode plate reader analysis
T3 sequence (Q99571 whole entry): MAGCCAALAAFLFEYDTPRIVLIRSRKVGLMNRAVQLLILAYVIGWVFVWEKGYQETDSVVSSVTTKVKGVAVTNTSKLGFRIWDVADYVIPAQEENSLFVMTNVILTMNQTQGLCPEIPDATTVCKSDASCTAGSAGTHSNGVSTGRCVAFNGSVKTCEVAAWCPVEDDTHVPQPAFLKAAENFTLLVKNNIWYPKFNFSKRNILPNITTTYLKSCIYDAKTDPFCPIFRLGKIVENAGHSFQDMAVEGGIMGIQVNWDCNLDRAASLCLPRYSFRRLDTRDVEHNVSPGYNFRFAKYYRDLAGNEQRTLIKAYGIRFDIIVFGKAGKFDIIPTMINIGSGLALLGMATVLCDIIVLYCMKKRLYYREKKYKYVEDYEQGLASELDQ

[4] = molecular target: T4, P2X purinoceptor 2 (Homo sapiens, UniProt Q9UBL9); experiment: Antagonist activity at human P2X2R expressing CHO cells assessed as reduction in intracellular Ca2+ influx pretreated with Fluo-4 for 1 hr followed by compound addition and further incubated for 30 mins in presence of ATP by multimode plate reader analysis
T4 sequence (Q9UBL9 whole entry): T2 sequence (Q9UBL9 whole entry)

[5] = molecular target: T1, P2X purinoceptor 7; experiment: Antagonist activity at human P2X7R expressing HEK293 cells assessed as reduction in intracellular Ca2+ influx pretreated with Fluo-4 for 1 hr followed by compound addition and further incubated for 30 mins in presence of ATP by multimode plate reader analysis
[6] = molecular target: T4, P2X purinoceptor 2; experiment: […] activity at human P2X2R expressing CHO cells assessed as reduction in intracellular Ca2+ influx pretreated with Fluo-4 for 1 hr followed by compound addition and further incubated for 30 mins in presence of ATP by multimode plate reader analysis
[7] = molecular target: T2, P2X2/P2X3 heterotrimeric receptor; experiment: […] activity at human P2X2R/P2X3R expressing CHO cells assessed as reduction in intracellular Ca2+ influx pretreated with Fluo-4 for 1 hr followed by compound addition and further incubated for 30 mins in presence of ATP by multimode plate reader analysis
[8] = molecular target: T3, P2X purinoceptor 4; experiment: […] activity at human P2X4R expressing HEK293 cells assessed as reduction in intracellular Ca2+ influx pretreated with Fluo-4 for 1 hr followed by compound addition and further incubated for 30 mins in presence of ATP by multimode plate reader analysis
[9] = molecular target: T5, P2X purinoceptor 1 (Homo sapiens, UniProt P51575); experiment: […] activity at human P2X1R expressing CHO cells assessed as reduction in intracellular Ca2+ influx pretreated with Fluo-4 for 1 hr followed by compound addition and further incubated for 30 mins in presence of ATP by multimode plate reader analysis
T5 sequence (P51575 whole entry): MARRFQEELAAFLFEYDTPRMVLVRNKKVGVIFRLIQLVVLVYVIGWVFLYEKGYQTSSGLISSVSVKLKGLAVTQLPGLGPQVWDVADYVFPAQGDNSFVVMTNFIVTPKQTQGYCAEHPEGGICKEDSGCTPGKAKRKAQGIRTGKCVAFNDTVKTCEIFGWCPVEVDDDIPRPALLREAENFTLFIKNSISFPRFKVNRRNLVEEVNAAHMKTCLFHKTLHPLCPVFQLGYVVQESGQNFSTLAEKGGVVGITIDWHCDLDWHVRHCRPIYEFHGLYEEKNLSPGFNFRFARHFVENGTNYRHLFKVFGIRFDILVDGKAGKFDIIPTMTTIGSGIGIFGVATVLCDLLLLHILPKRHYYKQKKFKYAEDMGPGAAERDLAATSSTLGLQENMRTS

[10] = molecular target: T6, P2X purinoceptor 3 (Homo sapiens, UniProt P56373); experiment: Antagonist activity at human P2X3R expressing CHO cells assessed as reduction in intracellular Ca2+ influx pretreated with Fluo-4 for 1 hr followed by compound addition and further incubated for 30 mins in presence of ATP by multimode plate reader analysis
T6 sequence (P56373 whole entry): T2 sequence (P56373 whole entry)

[11] = molecular target: T1, P2X purinoceptor 7; experiment: […] activity at human P2X7R expressed in HEK293 cells assessed as reduction in YO-PRO-1 iodide dye uptake preincubated for 30 mins followed by YO-PRO-1 iodide addition and measured after 2 hrs by fluorescence based multimode plate reader analysis
[12] = molecular target: T5, P2X purinoceptor 1; experiment: Antagonist activity at human P2X1R expressing CHO cells assessed as reduction in intracellular Ca2+ influx pretreated with Fluo-4 for 1 hr followed by compound addition and further incubated for 30 mins in presence of ATP by multimode plate reader analysis
[13] = molecular target: T6, P2X purinoceptor 3; experiment: […] activity at human P2X3R expressing CHO cells assessed as reduction in intracellular Ca2+ influx pretreated with Fluo-4 for 1 hr followed by compound addition and further incubated for 30 mins in presence of ATP by multimode plate reader analysis

Compound: COc1ccc(C(=O)O[C@@H]2[C@H](OC(=O)c3ccc(OC)cc3)[C@@H](COP(=O)(O)OP(=O)(O)OP(=O)(O)O)O[C@H]2n2cnc3c(N)ncnc32)cc1
- pIC50 [1]: < 4.00
- pIC50 [2]: < 4.00
- pIC50 [3]: < 4.00
- pIC50 [4]: < 4.00
- pIC50 [5]: < 4.00
- pIC50 [6]: < 4.00
- pIC50 [7]: < 4.00
- pIC50 [8]: < 4.00
- pIC50 [9]: < 4.00
- pIC50 [10]: < 4.00
- pIC50 [11]: < 4.00
- pIC50 [12]: < 4.00
- pIC50 [13]: < 4.00

Compound: Nc1ncnc2c1ncn2[C@@H]1O[C@H](COP(=O)(O)OP(=O)(O)OP(=O)(O)O)[C@@H](OC(=O)c2ccccc2)[C@H]1OC(=O)c1ccccc1
- pEC50 [1]: < 4.00
- pIC50 [2]: < 4.00
- pIC50 [3]: < 4.00
- pIC50 [4]: 4.58
- pIC50 [5]: < 4.00
- pEC50 [6]: < 4.00
- pEC50 [7]: 5.92
- pEC50 [8]: 5.83
- pEC50 [9]: < 4.00
- pIC50 [10]: < 4.00
- pEC50 [11]: < 4.00
- pIC50 [12]: < 4.00
- pEC50 [13]: < 4.00
